What all share (type): cell-based, Staphylococcus aureus
For assay [1], the system named is MRSA USA300 (BAA-1680). Description: Growth kinetics (OD600) with bacitracin, alkyl gallates and combinations. The following applies: bacitracin 0.001 U to 100 U. From the text: (§1) MRSA (ATCC 33593), MSSA (ATCC 29213), and MRSA USA300 (BAA-1680) strains were purchased from the American Type Culture Collection (ATCC; Manassas, Va.). Eight clinical isolates of MRSA were obtained from the Culture Collection of Antimicrobial Resistant Microbes, Korea National Research Resource Center (KNRRC). Salmonella enterica Typhimurium LT2 was purchased from ATCC, and Escherichia coli O157:H7 is a kind gift from Dr. Sangryeol Ryu (Seoul National University, South Korea). All S. aureus strains were maintained in Trypticase Soy (TS) medium, and E. coli O157:H7 and Salmonella were routinely grown aerobically on Luria-Bertani (LB) media at 37° C. For measuring growth kinetics, an overnight culture of MRSA in Mueller-Hinton (MH) broth was diluted 100-fold in fresh MH broth and cultured until early exponential phase. The culture (200 μl) was transferred to each well of a sterile 96-well plate and incubated at 37° C. with bacitracin alone, alkyl gallate alone, and combination of bacitracin/alkyl gallates at various concentrations. The optical density at 600 nm (OD600) was measured every hour with FLUOstar® Omega (BMG Labtech, Germany).

The subject of assay [2] is MRSA USA300 (BAA-1680). The assay can be described thus: microbe, parasite or virus in culture. The following applies: for bactericidal activity in combination with bacitracin: FIG. 2; for MIC / MBC: agent alone.
From the text: as §1
(§2) Broth micro dilution assays were performed to determine the minimum inhibitory concentrations (MIC) accordance to the M7-A7 protocol of the Clinical and Laboratory Standards Institute (CLSI) guidelines^28. The susceptibility test was carried out with an initial bacterial inoculum of 1.5×10^5 CFU ml^−1. Alkyl gallates and bacitracin were serially diluted in a polystyrene 96 well plate and the plate was incubated at 37° C. for 24 h. Minimum bactericidal concentration (MBC) was determined by spotting 10 μl of cultures from MIC tests onto MH agar and incubated aerobically at 37° C.

Assay [3] concerns MRSA 3876. Description: microbe, parasite or virus in culture. The following applies: Staphylococcus aureus.
From the text: as §1, §2

Assay [4] concerns MRSA 3865. The assay can be described thus: microbe, parasite or virus in culture. To be noted: Staphylococcus aureus.
From the text: as §1, §2

The test system of assay [5] is MRSA 3903. Description: microbe, parasite or virus in culture. To be noted: Staphylococcus aureus.
From the text: as §1, §2

Assay [6] deals with MRSA 3795. Description: microbe, parasite or virus in culture. The following applies: Staphylococcus aureus.
From the text: as §1, §2

In assay [7] the test system is MRSA 3A585. Description: microbe, parasite or virus in culture. To be noted: Staphylococcus aureus.
From the text: as §1, §2

Assay [8] concerns MRSA 3823. The assay can be described thus: microbe, parasite or virus in culture. The following applies: Staphylococcus aureus.
From the text: as §1, §2

Assay [9] concerns MRSA 3799. The assay can be described thus: microbe, parasite or virus in culture. The following applies: Staphylococcus aureus.
From the text: as §1, §2

In assay [10] the test system is MRSA 3095. Description: microbe, parasite or virus in culture. To be noted: Staphylococcus aureus.
From the text: as §1, §2

The test system of assay [11] is USA300. Description: Bacterial membrane permeability (propidium iodide fluorescence). The following applies: agent alone, sub-MIC levels, EDTA 1 mM. As for the experimental part: Membrane permeability was determined by measuring fluorescence after exposure of USA300 to propidium iodide as described previously^29. Briefly, USA300 was grown in MH broth to the exponential phase and then diluted to OD600≈0.25. Propidium iodide was mixed with bacteria to a final concentration of 10 μM. […] Fluorescence was monitored at excitation and emission wavelengths of 585 nm and 620 nm, respectively, for 1 h using FLUOstar Omega® (BMG Labtech, Germany). The membrane permeability was calculated by subtracting fluorescence intensity of controls without treatment with phenolic compounds from that of treated samples. EDTA (1 mM) was used as a positive control.

For assay [12], the system named is MSSA (ATCC 29213). The assay can be described thus: MIC (broth dilution) and MBC (spotting) of phenolic antioxidants and bacitracin. To be noted: for MIC: antioxidant alone.
From the text: as §1, §2
(§3) MICs were determined with MRSA and methicillin-sensitive S. aureus (MSSA) using a broth dilution method as described above.
(§4) MRSA and MSSA were cultured overnight with antioxidants (0.5 μg/ml) and bacitracin at various concentrations and 10 μL of the culture was spotted on MH agar plates and incubated aerobically at 37° C. to observe the bacterial viability. The results in FIGS. 9A, 9B, 9C and 9D (photographs of plates) show the Minimal Bactericidal Concentrations (MBCs) for indicated antioxidants. Bacitracin killed MRSA and MSSA at concentrations greater than or equal to 2 μg/mi.

Assay [13] relates to MRSA (ATCC 33593). Description: microbe, parasite or virus in culture.
From the text: as §1, §2, §3, §4

In assay [14] the test system is MRSA (normal MRSA strain, not USA300). Description: MRSA growth (optical density) with bacitracin and phenolic antioxidants. To be noted: bacitracin 0.002 μg/mL, antioxidant 0.5 μg/mL; FIG. 6.
From the text: as §1
MRSA were grown with bacitracin (0.002 μg/mL) with antioxidant (as shown) at 0.5 μg/mL.
FIG. 7A is growth with no added bacitracin or lauryl gallate.
The optical density of MRSA was measured after 18 h culture with bacitracin (0.002 μg/ml) and antioxidants (as indicated at 0.5 μg/ml). Also measured were controls with no additions, with bacitracin alone and with antioxidant alone. FIGS. 8A, 8B, 8C and 8D are graphs illustrating the results.

[15] abbreviates: Staphylococcus aureus, 24 h, read-out: MIC.
[16] abbreviates: Staphylococcus aureus, read-out: MBC.
The mark [17] stands for this setting: MRSA 3876 (human/skin), read-out: MIC.
[18] abbreviates: MRSA 3865 (human/skin), read-out: MIC.
Setting [19] is: MRSA 3903 (human/skin), read-out: MIC.
[20] abbreviates: MRSA 3795 (human/nose), read-out: MIC.
The mark [21] stands for this setting: MRSA 3A585 (human/blood), read-out: MIC.
The mark [22] stands for this setting: MRSA 3823 (human/nose), read-out: MIC.
Setting [23] is: MRSA 3799 (human/nose), read-out: MIC.
Setting [24] is: MRSA 3095 (human/skin), read-out: MIC.
Setting [25] is: Staphylococcus aureus, read-out: MIC.

Structures are written as SMILES. Like-named read-outs stand apart in the source and are kept apart here.

Turning to `CCCCOC(=O)c1cc(O)c(O)c(O)c1` [Butyl gallate (BG), Butyl gallate], the “growth inhibition by bacitracin in combination with alkyl gallate” value (“growth inhibition by bacitracin” below) in assay [1] is recorded as “significant growth inhibition”. The “bactericidal activity in combination with bacitracin” value in assay [2] is given as “synergistic antimicrobial activity”. Besides, the MIC in assay [2] (setting [15]), in assay [3] (setting [17]), in assay [4] (setting [18]), in assay [5] (setting [19]), in assay [6] (setting [20]) and in [7] (setting [21]) was 512 µg/mL throughout. Moreover, the MIC in assay [8] (setting [22]), in [9] (setting [23]) and in [10] (setting [24]) was 512 µg/mL in each case. Besides, the MBC in assay [2] (setting [16]) was found to be 1020 µg/mL.

For `O=C(O)CN(CCN(CC(=O)O)CC(=O)O)CC(=O)O` [EDTA, reference compound], in assay [11], the membrane permeability result is reported as “significantly increased membrane permeability”.

Turning to `CC[C@H]1OC(=O)[C@H](C)[C@@H](O[C@H]2C[C@@](C)(OC)[C@@H](O)[C@H](C)O2)[C@H](C)[C@@H](O[C@@H]2O[C@H](C)C[C@H](N(C)C)[C@H]2O)[C@](C)(O)C[C@@H](C)C(=O)[C@H](C)[C@@H](O)[C@]1(C)O` [ERY, erythromycin], the MIC was not below 128 µg/mL in [3] (setting [17]); not below 128 µg/mL in assay [4] (setting [18]); not below 128 µg/mL in [5] (setting [19]); not below 128 µg/mL in [6] (setting [20]); not below 4 µg/mL in [7] (setting [21]); not below 128 µg/mL in [8] (setting [22]). Further, the MIC in assay [9] (setting [23]) and in assay [10] (setting [24]) was not below 128 µg/mL in each case.

`CCOC(=O)c1cc(O)c(O)c(O)c1` [Ethyl gallate (EG), ethyl gallate]: the “growth inhibition by bacitracin” value in assay [1] is “significant growth inhibition”. Further, the MBC in [2] is 256 µg/mL. The MIC was 128 µg/mL in [2]; more than 1020 µg/mL in assay [3] (setting [17]); more than 1020 µg/mL in assay [4] (setting [18]); more than 1020 µg/mL in assay [5] (setting [19]); more than 1020 µg/mL in [6] (setting [20]); more than 1020 µg/mL in [7] (setting [21]). Also, the MIC in [8] (setting [22]), in [9] (setting [23]) and in assay [10] (setting [24]) was more than 1020 µg/mL in each case.

As for `O=C(O)c1cc(O)c(O)c(O)c1` [Gallic acid, gallic acid], the MBC in assay [2] was 256 µg/mL. Also, the MIC in [2] is 128 µg/mL; in [3] (MRSA), more than 1020 µg/mL; in [4] (MRSA) it was more than 1020 µg/mL; in assay [5] (MRSA) it was more than 1020 µg/mL; in assay [6] (MRSA), more than 1020 µg/mL; in assay [7] (MRSA), more than 1020 µg/mL. Also, the MIC in assay [8] (MRSA), in assay [9] (MRSA), in assay [10] (MRSA), in assay [12] (setting [25]) and in [13] (Staphylococcus aureus) was more than 1020 µg/mL each time.

Consider `COC(=O)c1cc(O)c(O)c(O)c1` [Methyl gallate (MG), methyl gallate], for which the “growth inhibition by bacitracin” value in [1] is listed as “significant growth inhibition”. Moreover, the MBC in [2] was 256 µg/mL. The MIC in assay [2] was 128 µg/mL; in [3] (setting [17]) it was more than 1020 µg/mL; in assay [4] (setting [18]), more than 1020 µg/mL; in assay [5] (setting [19]), more than 1020 µg/mL; in [6] (setting [20]), more than 1020 µg/mL; in assay [7] (setting [21]), more than 1020 µg/mL. The MIC in [8] (setting [22]), in assay [9] (setting [23]) and in assay [10] (setting [24]) was more than 1020 µg/mL in each case.

`Cc1onc(-c2ccccc2)c1C(=O)N[C@@H]1C(=O)N2[C@@H]1SC(C)(C)[C@@H]2C(=O)O` [OXA, oxacillin]: the MIC is 128 µg/mL in [3] (setting [17]); 128 µg/mL in [4] (setting [18]); not below 128 µg/mL in assay [5] (setting [19]); not below 128 µg/mL in assay [6] (setting [20]); more than 2 µg/mL in assay [7] (setting [21]); 128 µg/mL in [8] (setting [22]). The MIC in assay [9] (setting [23]) was not below 128 µg/mL; in assay [10] (setting [24]), not below 64 µg/mL.

Consider `CCCOC(=O)c1cc(O)c(O)c(O)c1` [Propyl gallate, propyl gallate], for which, in assay [2], the MBC was found to be 256 µg/mL. For the same compound, the MIC is 128 µg/mL in [2]; more than 1020 µg/mL in assay [3] (setting [17]); more than 1020 µg/mL in assay [4] (setting [18]); more than 1020 µg/mL in assay [5] (setting [19]); 512 µg/mL in [6] (setting [20]); more than 1020 µg/mL in [7] (setting [21]). The MIC in assay [8] (setting [22]) was 512 µg/mL; in assay [9] (setting [23]), 512 µg/mL; in assay [10] (setting [24]), more than 1020 µg/mL; in assay [12] (setting [25]) it was 128 µg/mL; in assay [12] it was 64 µg/mL; in assay [13] (MRSA, antioxidant alone), 512 µg/mL. The MIC in assay [13] (Staphylococcus aureus, MRSA, antioxidant alone, read-out: MIC) came out at 256 µg/mL. In assay [14], the “growth of MRSA with bacitracin plus antioxidant” value was “significantly inhibited the growth of MRSA”. The “fold decrease of bacitracin MBC by antioxidant” value in assay [12] (antioxidant 0.5 μg/ml, compared to bacitracin alone) was determined as 16 fold; in assay [13] (MRSA, antioxidant 0.5 μg/ml, compared to bacitracin alone), 8 fold.

On to `CCCCCCCCCCCCCCCCCCOC(=O)c1cc(O)c(O)c(O)c1` [Stearyl gallate (SG), stearyl gallate], for which the “growth inhibition by bacitracin” value in assay [1] is listed as “completely inhibited the growth of USA300”. The “bactericidal activity in combination with bacitracin” value in assay [2] was “killing effect was not as significant as OG, LG, and BG”. Besides, the MIC in assay [2] (setting [15]) is 1020 µg/mL; in [3] (setting [17]), more than 1020 µg/mL; in [4] (setting [18]), more than 1020 µg/mL; in assay [5] (setting [19]), more than 1020 µg/mL; in assay [6] (setting [20]), more than 1020 µg/mL; in assay [7] (setting [21]) it was more than 1020 µg/mL. Besides, the MIC in assay [8] (setting [22]), in assay [9] (setting [23]) and in [10] (setting [24]) was more than 1020 µg/mL each time. Besides, the MBC in [2] (setting [16]) amounted to 2050 µg/mL.

Values taken from patent US10420815B2, “Combinational therapy for synergistic inhibition of gram-positive and gram-negative bacteria” (priority 2015, dated 2019).
